Test: In vivo biodistribution of ^225Ac complexes after intravenous injection
Parameters: species or system C57BL/6 mice
Procedure: In Vivo Biodistribution of ^225Ac Complexes of Macropa and DOTA. All experiments were approved by the Institutional Animal Care Committee (IACC) of the University of British Columbia and were performed in accordance with the Canadian Council on Animal Care Guidelines. A total of 9 female C57BL/6 mice (6-8 weeks old, 20-25 g) were used for the biodistribution study of each radiometal complex, n=3 for each time point.
Macropa (100 μL of a 1 mg/mL solution in NH4OAc) was diluted with 387 μL of NH4OAc (1 M, pH 7), and an aliquot (203 μL) of ^225Ac(NO3)3 (˜157 kBq) was then added; the pH of this solution was adjusted to 6.5-7 by the addition of 1 M NaOH (210 μL, trace metal grade). After 5 min at ambient temperature, the reaction solution was analyzed by TLC (0.4 M pH 4 sodium citrate as the eluent), which confirmed >95% radiochemical yield. The reaction was allowed to proceed overnight, and the radiochemical yield was again confirmed to be >95% the following morning. At this time, mice were anesthetized by 2% isoflurane, and approximately 100 μL (10-15 kBq) of the [^225Ac(macropa)]^+ complex were injected into the tail vein of each mouse. After injection, mice were allowed to recover and roam freely in their cages, and were euthanized by CO2 inhalation at 15 min, 1 h, or 5 h (n=3 at each time point) post-injection. Blood was collected by cardiac puncture and placed into an appropriate test tube for scintillation counting. Tissues collected included heart, liver, kidneys, lungs, small intestine, large intestine, brain, bladder, spleen, stomach, pancreas, bone, thyroid, tail, urine, and feces. Tissues were weighed and then counted with a calibrated gamma counter (Packard, Cobra II model 5002) using three energy windows: 60-120 keV (window A), 180-260 keV (window B), and 400-480 keV (window C). Counting was performed both immediately after sacrifice and after 7 days; counts were decay corrected from the time of injection and then converted to the percentage of injected dose (% ID) per gram of tissue (% ID/g). No differences were noted between the data; therefore, the biodistributions are reported using the data acquired immediately using window A.
The biodistribution studies of [^225Ac(DOTA)]^− and ^225Ac(NO3)3 were carried out as described above for [^225Ac(macropa)]^+, with the following modifications. [^225Ac(DOTA)]^− was prepared by adding ^225Ac(NO3)3 (338 μL, 1.1 MBq) to a solution of DOTA (100 μg, 20 mg/mL in H2O) in NH4OAc (467 μL, 0.15 M, pH 7). The pH of the solution was adjusted to 7 using NH4OAc (150 μL, 1 M, pH 7) and the solution was heated at 85° C. for 45 min. RCY>99% was confirmed by TLC as described above. [^225Ac(DOTA)]^− was diluted with saline to a final concentration of 0.05 MBq/100 μL, and 100 μL were injected into each mouse. ^225Ac(NO3)3 (˜58 μL, 0.4 MBq) was diluted and injected in the same manner as [^225Ac(DOTA)]^−. One mouse that was to be euthanized at the 5 h time point in the [^225Ac(DOTA)]^− study died shortly after injection. In the same manner, one mouse that was to be euthanized at the 1 h time point in the ^225Ac(NO3)3 study died.
The in vivo stability [^225Ac(macropa)]^+ was examined by comparing its biodistribution to those of ^225Ac(NO3)3 and [^225Ac(DOTA)]^−. C57BL/6 mice were injected via tail vein with 10-50 kBq of each radiometal complex and were sacrificed after 15 min, 1 h, or 5 h. The amount of ^225Ac retained in each organ was quantified by gamma counting and reported as the percent of injected dose per gram of tissue (% ID/g). The results of these studies are compiled in Tables 1-3. Inadequate stability of an ^225Ac complex leading to the loss of radioisotope in vivo is manifested by the accumulation of ^225Ac in the liver, spleen, and bone of mice.^[11,12,32] […] The biodistribution profile of [^225Ac(macropa)]^+ (FIG. 3B) differs markedly from that of ^225Ac(NO3)3. […]

[1] = 1 h after i.v. injection, energy window B (180-260 keV)
[2] = 1 h after i.v. injection, energy window C (400-480 keV)
[3] = 5 h after i.v. injection, energy window A (60-120 keV)
[4] = 5 h after i.v. injection, energy window B (180-260 keV)
[5] = 5 h after i.v. injection, energy window C (400-480 keV)
[6] = i.v. injection, C57BL/6 mice, up to 5 h

O=[N+]([O-])[O-].O=[N+]([O-])[O-].O=[N+]([O-])[O-].[225Ac] [^225Ac(NO3)3]
% ID/g in lungs [1]: 8.4426 % ID/g | % ID/g in pancreas [1]: 2.1579 % ID/g | % ID/g in small intestines [1]: 1.5192 % ID/g | % ID/g in spleen [1]: 37.1540 % ID/g | % ID/g in stomach [1]: 1.5867 % ID/g | % ID/g in tail [1]: 6.4201 % ID/g | % ID/g in thyroids [1]: 5.7426 % ID/g | % ID/g in urine [1]: 7.0564 % ID/g | % ID/g in bladder [2]: 2.2929 % ID/g | % ID/g in blood [2]: 11.3736 % ID/g | % ID/g in bone (femur + joint) [2]: 2.7213 % ID/g | % ID/g in brain [2]: 0.4402 % ID/g | % ID/g in feces [2]: 0.1122 % ID/g | % ID/g in heart [2]: 3.3464 % ID/g | % ID/g in kidneys [2]: 6.2070 % ID/g | % ID/g in large intestines [2]: 0.4366 % ID/g | % ID/g in liver [2]: 23.6180 % ID/g | % ID/g in lungs [2]: 5.2078 % ID/g | % ID/g in pancreas [2]: 1.8508 % ID/g | % ID/g in small intestines [2]: 3.5548 % ID/g | % ID/g in spleen [2]: 38.1082 % ID/g | % ID/g in stomach [2]: 2.3350 % ID/g | % ID/g in tail [2]: 9.0877 % ID/g | % ID/g in thyroids [2]: 0.0000 % ID/g | % ID/g in urine [2]: 104.9103 % ID/g | % ID/g in bladder [3]: 1.4947 % ID/g | % ID/g in blood [3]: 1.9886 % ID/g | % ID/g in bone (femur + joint) [3]: 3.5460 % ID/g | % ID/g in brain [3]: 0.0452 % ID/g | % ID/g in feces [3]: 0.9445 % ID/g | % ID/g in heart [3]: 1.3450 % ID/g | % ID/g in kidneys [3]: 4.6910 % ID/g | % ID/g in large intestines [3]: 0.6479 % ID/g | % ID/g in liver [3]: 59.8156 % ID/g | % ID/g in lungs [3]: 4.1871 % ID/g | % ID/g in pancreas [3]: 0.4874 % ID/g | % ID/g in small intestines [3]: 1.3704 % ID/g | % ID/g in spleen [3]: 62.9614 % ID/g | % ID/g in stomach [3]: 2.6131 % ID/g | % ID/g in tail [3]: 23.4055 % ID/g | % ID/g in thyroids [3]: -2.7052 % ID/g | % ID/g in urine [3]: 4.8267 % ID/g | % ID/g in bladder [4]: 1.5234 % ID/g | % ID/g in blood [4]: 2.0018 % ID/g | % ID/g in bone (femur + joint) [4]: 3.8533 % ID/g | % ID/g in brain [4]: 0.0290 % ID/g | % ID/g in feces [4]: 1.0201 % ID/g | % ID/g in heart [4]: 1.3948 % ID/g | % ID/g in kidneys [4]: 3.8752 % ID/g | % ID/g in large intestines [4]: 0.6744 % ID/g | % ID/g in liver [4]: 62.0765 % ID/g | % ID/g in lungs [4]: 4.3379 % ID/g | % ID/g in pancreas [4]: 0.4455 % ID/g | % ID/g in small intestines [4]: 1.2201 % ID/g | % ID/g in spleen [4]: 65.9117 % ID/g | % ID/g in stomach [4]: 2.5322 % ID/g | % ID/g in tail [4]: 25.4744 % ID/g | % ID/g in thyroids [4]: −4.6044 % ID/g | % ID/g in urine [4]: 3.3142 % ID/g | % ID/g in bladder [5]: 3.4975 % ID/g | % ID/g in blood [5]: 2.1769 % ID/g | % ID/g in bone (femur + joint) [5]: 3.5851 % ID/g | % ID/g in brain [5]: 0.0430 % ID/g | % ID/g in feces [5]: 0.8535 % ID/g | % ID/g in heart [5]: 1.2018 % ID/g | % ID/g in kidneys [5]: 4.2061 % ID/g | % ID/g in large intestines [5]: 1.0259 % ID/g | % ID/g in liver [5]: 54.1727 % ID/g | % ID/g in lungs [5]: 5.4923 % ID/g | % ID/g in pancreas [5]: 0.4643 % ID/g | % ID/g in small intestines [5]: 1.2922 % ID/g | % ID/g in spleen [5]: 62.2357 % ID/g | % ID/g in stomach [5]: 2.0358 % ID/g | % ID/g in tail [5]: 28.4443 % ID/g | % ID/g in thyroids [5]: -0.4455 % ID/g | % ID/g in urine [5]: 5.8548 % ID/g | clearance from blood / mice (in words) [6]: slow blood clearance and excretion | organ accumulation (in words) [6]: large accumulation in the liver and spleen
